{"source": "patent US6682753B2", "about": "“Methods for promoting weight gain using GPE-related compounds” (NeuronZ Limited, priority 2001, dated 2004)", "molecules": {"B1": {"name": "BDNF: brain-derived neurotrophic factor (BDNF) (protein, UniProt P23560 19-247, looked up)", "Neurotrophic factor BDNF …": "APMKEANIRGQGGLAYPGVRTHGTLESVNGPKAGSRGLTSLADTFEHVIEELLDEDQKVRPNEENNKDADLYTSRVMLSSQVPLEPPLLFLLEEYKNYLDAANMSMRVRRHSDPARRGELSVCDSISEWVTAADKKTAVDMSGGTVTVLEKVPVSKGQLKQYFYETKCNPMGYTKEGCRGIDKRHWNSQCRTTQSYVRALTMDSKKRIGWRFIRIDTSCVCTLTIKRGR"}, "B2": {"name": "GDNF: glial-derived neurotrophic factor (GDNF) (protein, UniProt P39905 78-211, looked up)", "Glial cell line-derived …": "SPDKQMAVLPRRERNRQAAAANPENSRGKGRRGQRGKNRGCVLTAIHLNVTDLGLGYETKEELIFRYCSGSCDAAETTYDKILKNLSRNRRLVSDKVGQACCRPIAFDDDLSFLDDNLVYHILRKHSAKRCGCI"}}, "key": {"[1]": {"assay": "Body weight gain over 14 days in rats after unilateral fimbria-fornix lesion with daily intracerebroventricular infusion", "format": "in vivo, male Wistar rats", "details": "lesioned rats; daily icv infusion of 2 μL for 14 days: GPE 3 μg/day, IGF-I 20 μg/day, NGF 1 μg/day", "source_text": "A group of male Wistar rats weighing 174-193 g (University of Auckland, Animal Resources Unit) were divided randomly into the following groups: “control”, “sham”, “vehicle”, “GPE”, “IGF-I”, and “NGF”, depending on the treatment each animal was to undergo. “Control” animals were weighed at the first and last time points and were not treated or handled at any other time. “Sham” animals underwent a sham surgery of anesthesia, incision through the scalp skin, drill hole through the skull, bone wax to seal the drill hole, and sutures for the skin incision. They were then handled daily in mock infusions to mimic handling of animals that received lesions and intracerebroventricular infusions.\n“Vehicle”, “GPE”, “IGF-I”, and “NGF” animals were anaesthetized with 75 mg/Kg sodium pentobarbital and positioned in a stereotaxic apparatus (Kopf Instruments, USA), and underwent unilateral fimbria-fomix lesions to lesion septal cholinergic neurons and chronic cannula implantation into the left lateral cerebral ventricle. Fomix-fimbria lesions were performed by transecting the fimbria-fornix projection using a specialized retractable wire Scouten knife (Kopf Instruments) designed to minimize tissue damage except at the required lesion site. Anaesthetized animals received an incision through their scalp skin and a small drill hole was made in the skull at the stereotaxic coordinates anterior-posterior (AP) axis−1.0 mm from the bregma and medial-lateral (ML) axis+2.5 mm from midline (left side), from an atlas of the rat brain (Paxinos et al. (1986), “The rat brain in stereotaxic coordinates”, Academic Press, London). The knife was lowered into the brain through the drill hole to the coordinate+6.0 mm ventral to the skull on the dorsal-ventral (DV) axis. The knife blade was then extended 2.5 mm toward midline at an angle of 30° caudal to the bregma. The knife, with blade extended, was then raised 4.5 mm dorsally to axotomize the fimbria-fomix fibres. The blade was then retracted, the knife lowered 4.5 mm to its original coordinate, and the process was repeated. […]"}, "[2]": {"assay": "Weight gain in human patient suffering from a head injury, central administration (Examples 2-4)", "format": "in vivo", "details": "14 days", "method": "GPE in a dose of 10 μg/Kg/day is administered via lateral cerebroventricular injection into the brain of a human patient suffering from a head injury to promote weight gain to normal levels. Alternatively, a GPE analog is administered. Treatment is commenced as soon as possible after the head injury and then for 14 days thereafter.\nA GPE analog in a dose of 20 μg/Kg/day is administered via focal injection into the lateral cerebral ventricle of a human patient suffering from a head injury to promote weight gain to normal levels. Alternatively, GPE is administered. Treatment is commenced as soon as possible after the head injury and then for 14 days thereafter.\nGPE in a dose of 5 μg/Kg/day is administered via a surgically inserted shunt into the lateral cerebral ventricle of a human patient suffering from a head injury to promote weight gain to normal levels. Alternatively, a GPE analog is administered. Treatment is commenced as soon as possible after the head injury and then for 14 days thereafter."}, "[3]": {"details": "administered into the brain following transient ischemia to the forebrain, adult rats; cited from earlier work"}, "[4]": {"details": "infused in the brain of adult rats after partial or full lesions (e.g. partial fimbria-fornix transection); cited from earlier work"}}}
{"molecule": "NCC(=O)N1CCC[C@H]1C(=O)N[C@@H](CCC(=O)O)C(=O)O", "note": "[GPE, glycyl-L-prolyl-L-glutamic acid]", "values": [{"measurement": "weight gain over the 14 days", "setting": "[1]", "result": "the normally expected weight gain occurred"}, {"measurement": "weight gain in patient", "setting": "[2]; 5 μg/Kg/day via surgically inserted shunt into the lateral cerebral ventricle", "result": "Normal weight gain is promoted"}, {"measurement": "weight gain in patient", "setting": "[2]; 10 μg/Kg/day via lateral cerebroventricular injection", "result": "Normal weight gain is promoted"}, {"measurement": "weight gain in patient", "setting": "[2]; 20 μg/Kg/day via focal injection into the lateral cerebral ventricle", "result": "Normal weight gain is promoted"}]}
{"molecule": "IGF-I: insulin-like growth factor I (IGF-I)", "values": [{"measurement": "effect on body weight", "setting": "[3]", "result": "cause weight gain"}, {"measurement": "weight gain over the 14 days", "setting": "[1]", "result": "minimal weight gain"}]}
{"molecule": "NGF: Nerve growth factor (NGF)", "values": [{"measurement": "effect on body weight gain", "setting": "[4]", "result": "either decrease normal body weight gain or cause weight loss"}, {"measurement": "weight gain over the 14 days", "setting": "[1]", "result": "no weight gain"}]}
{"molecule": "bFGF: basic fibroblast growth factor (bFGF)", "values": [{"measurement": "effect on body weight gain", "setting": "[4]", "result": "either decrease normal body weight gain or cause weight loss"}]}
{"molecule": "B1", "values": [{"measurement": "effect on body weight gain", "setting": "[4]", "result": "either decrease normal body weight gain or cause weight loss"}]}
{"molecule": "B2", "values": [{"measurement": "effect on body weight gain", "setting": "[4]", "result": "either decrease normal body weight gain or cause weight loss"}]}
